Here are results for five compounds from patent US20210378247A1 (priority 2018, published 2021).

Common to all, as to format: in vivo
Assay [1] deals with Phytophthora infestans. The settings on record: late blight, tomato leaf disk; strains 1×10^8 CFU/ml, mefenoxam 5 ppm; severity assessed after 7 days.
The test system of assay [2] is Phakopsora pachyrhizi. In words: Soybean detached leaf disk assay, soybean rust control. As to conditions: detached leaf disks, strains 1×10^8 CFU/mL, azoxystrobin 0.5 ppm. As to the method:
The susceptible soybean cultivar Williams 82 was used. Soybean plants were planted every 2 weeks and placed inside a growth chamber (Percival Scientific, Inc., Boone, Iowa) maintained at 75% relative humidity with a cycle of 14 h of light (350 μmol m^−2 s^−1 PAR) and 10 h of darkness at 24 and 23° C., respectively, for a constant supply of 2 to 3 week-old rust-free leaves. A mixture of P. pachyrhizi urediniospores obtained from infected soybean leaves collected from Gadsden County, Fla. in 2015 and 2016 was used in this experiment. The details of maintenance and increase of P. pachyrhizi urediniospores have been described elsewhere (Twizeyimana and Hartman 2010, Plant Dis. 94:1453-1460).
Leaf disks (3.5-cm diameter each) were sprayed with 120 μL of each bacterial strain of interest (1×10^8 CFU/mL of sterile distilled water) using a fingertip sprayer (Container & Packaging Supply, Eagle, Id.) fitted to a 15 mL conical centrifuge tube (Fisher Scientific, Cat No. 14-59-53A). […]
Rust severity was scored by counting the number of sporulating uredinia in two arbitrarily selected 1-cm diameter circle of leaf tissue from an inoculated leaf disk (Table 7). Data was analyzed using analysis of variance (ANOVA) in PROC GLM of SAS (version 9.4; SAS Institute Inc., Cary, N.C.) and significant differences (P<0.05) were observed among treatments.

For assay [3], the system named is Colletotrichum sublineolum. The assay can be described thus: Greenhouse assay, sorghum anthracnose on sorghum plants. As to conditions: greenhouse sorghum plants cv. Seso3; strains 5 g/L sprayed weekly for three weeks. As to the method:
Sorghum plants (cv. Seso3) were planted in the greenhouse. Thirty five days post planting, the plants were treated with microbial strains (AIP029105, AIP075655 or AIP061382) at the rate of 5 g/L. Other treatments included inoculated check and a fungicide (Mancozeb). The treatments were arranged in a randomized complete block design with three replications, each consisting of three plants. The treatments were sprayed onto the plant until run off. Treatment with biocontrol was done weekly for three consecutive weeks.
One day post treatment, the plants were inoculated with a suspension of Colletotrichum sublineolum spores. The inoculum was prepared from a fungal isolate obtained from naturally infected sorghum in Eastern Uganda. The isolate was cultured on potato dextrose agar (PDA; Farm Eur. Laboratories Madrid, Spain), at 26-28° C. for two weeks to achieve sporulation. […]
Disease incidence was carried out by observing individual plants for the appearance of anthracnose symptoms, starting at 7 days post inoculation, and thereafter on a weekly basis for five weeks. Any plant showing anthracnose symptoms was recorded and contributed to the overall number of infected plants (incidence) succumbing to the disease irrespective of the severity. […] Data was analyzed using analysis of variance (ANOVA) in JMP® (version 14.0.0; SAS Institute Inc., Cary, N.C.).

In assay [4] the test system is Mycosphaerella fijiensis. The assay can be described thus: Grand Nain leaf piece assay, black sigatoka control. As to conditions: Grand Nain leaf pieces, strains 1×10^8 CFU/mL, mancozeb 10 ppm. Here is the method:
The susceptible musa cultivar Grand Nain was used. Plants were maintained in the greenhouse for a constant supply of disease-free leaves. The inoculum used in this evaluation was a M. fijiensis culture obtained from the International of Tropical Agriculture (IITA), Ibadan, Nigeria and was maintained on V8 Juice agar.
Smaller leaf pieces (4 cm long×3 cm wide) were cut from the excised leaf. Two leaf pieces were placed in plastic petri dishes with adaxial side on agar amended with 5 mg/liter gibberellic acid. Leaf pieces were sprayed with 120 μL of bacterial strain (1×10^8 CFU/mL of sterile distilled water) using a fingertip sprayer. Petri dishes with leaf pieces were incubated at room temperature in the dark for 24 h. Leaf pieces were then inoculated with a mycelial suspension of M. fijiensis, Mycelial fragments scraped from growing cultures were cut in smaller mycelial tips in sterile distilled (in 50 ml conical tubes) using a homogenizer (Omni International, Kennesaw, Ga.). […]
Data recorded was the most progressed stage on inoculated leaves at the time of data collection (there are six recognized stages for black sigatoka symptom development). Data was analyzed using analysis of variance (ANOVA) in PROC GLM of SAS (version 9.4; SAS Institute Inc., Cary, N.C.) and significant differences (P<0.05) were observed among treatments.

Assay [5] relates to Colletotrichum sublineolum. In words: Sorghum detached leaf assay, anthracnose disease control. As to conditions: strains 1×10^8 CFU/mL, pyraclostrobin 10 ppm, severity assessed after 7 days. Here is the method: Sorghum cultivar 12-GS9016-KS585 was grown in the greenhouse for a steady supply of leaf tissue for the bacterial strain evaluation. Fully expanded sorghum leaves from 4-6 weeks old plants were excised and cut into equal pieces, 2.5 cm wide. Colletotrichum sublineolum, (obtained from the Dr. Isakeit laboratory at Texas A&M University) was grown on 20% Oatmeal agar for 14 days. The actively growing culture was flooded with sterile distilled water, dislodging the spores. The concentration of the suspension was then adjusted to 1×10^6 spores/mL. Tween 20 was then added to the suspension to 0.05%.
Each of the bacterial strains of interest was streaked onto Luria Bertani (LB) agar petri plates. A single colony was picked and placed in 50 ml of LB liquid medium or in liquid culture (CHA medium; per L, NaCl (5 g), tryptone (10 g), nutrient broth (8 g), CaCl2 (0.14 mM), MgCl2.6H2O (0.2 mM), and MnCl2.4H2O (0.01 mM)) in a 250-ml flask. […]
Anthracnose severity was assessed on a scale of 0-4 after 7 days according to Prom, et al., 2016 (Plant Path J. 15(1): 11-16), with few modifications. […] Results (Table 4) were analyzed using analysis of variance (ANOVA) in JMP® (version 13.2.1; SAS Institute Inc., Cary, N.C.) and significant differences (P<0.05) were observed among bacterial strains.

Assay [6] relates to Podosphaera xanthii. The assay can be described thus: Detached squash leaf disk assay, powdery mildew control. As to conditions: detached squash leaf disks, tebuconazole 10 ppm, incubated six days. Here is the method:
Leaf disks of healthy squash leaves were excised and cut into uniform leaf disks 35 mm in diameter using a large cork borer. An experimental unit consisted of a single leaf disk, each treated with a suspension of the selected bacterium. Treatments included AgBiome strains AIP061382, AIP075655, and AIP029105, and control treatments. Controls were non-inoculated and inoculated leaf disks, and the synthetic fungicide tebuconazole at 10 ppm as a positive control. Bacterial strains were prepared as described in Example 2. Each leaf disk was sprayed with 200 μL of the treatment (bacterial suspension or synthetic fungicide) on the adaxial surface 24 hours before inoculation with the pathogen, Podosphaera xanthii (strain obtained from Dr. McGrath laboratory, Cornell University). After treatment with the fungicide, leaf disks were incubated in the dark for 24 hours at 23° C.
Leaf disks were inoculated by spraying a 1×10^6 suspension of P. xanthii conidia on the treated leaf surface. Treatments were placed into sealed clear plastic boxes and incubated for six days at 25° C. with a relative humidity of 80% and a 12 hour photoperiod. […] The number of powdery mildew colonies were also recorded for each treatment. […] Data was analyzed in SAS JMP version 14.0.

For `COCC(=O)N(c1c(C)cccc1C)[C@H](C)C(=O)OC` [Mefenoxam], in assay [1], the “Percent Disease Control, Confirmation” value amounted to 75.0% and the “Percent Disease Control, Primary screen” value amounted to 75.0%.
As for `CO/C=C(/C(=O)OC)c1ccccc1Oc1cc(Oc2ccccc2C#N)ncn1` [Azoxystrobin], in assay [2], the “Percent Disease Control” value came out at 97.0%.
Consider Mancozeb, for which the figures for the “Percent Disease Control” value in assay [3] and in assay [4] were 52.9a % and 83.7%, respectively.
With `COC(=O)N(OC)c1ccccc1COc1ccn(-c2ccc(Cl)cc2)n1` [Pyraclostrobin], in assay [5], the “Percent Disease Control, Confirmation” value is given as 97.1% and the “Percent Disease Control, Primary screen” value was 96.2%.
As to `CC(C)(C)C(O)(CCc1ccc(Cl)cc1)Cn1cncn1` (centres unmarked) [Tebuconazole], in assay [6], the “Percent Disease Control” value worked out at 67.0%.
